Structures can show the parent of a compound that is named as a salt.
How the values were obtained:
Type in all cases: biochemical
CDK2/cycline E = molecular target: T1, CDK2/cycline E (Homo sapiens, UniProt P24941); assay: CDK2/cyclineE Flashplate test in 96-well format; conditions: CDK2/cycline E complex, 1 μM ATP
T1 construct: made in house; host or cells: Sf21 insect cells (baculovirus coinfection)
In short: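 Recombinant human CDK2/cyclin E (His-tagged cyclin E, coexpressed in Sf21 cells), 20 nM, phosphorylates biotinylated pRb peptide (10 μM) with 1 μM ATP plus [γ-33P]ATP in HEPES pH 7.5, MgCl2, DTT at 30 °C. Inhibitors tested at 10 μM down to 0.014 μM; 33P incorporation read by scintillation on streptavidin plates.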

Tie2 = molecular target: T2, Tie2 (Homo sapiens, UniProt Q02763); assay: Tie2 kinase test, phosphorylation of PLC with GST-Tie2; conditions: GST-Tie2 intracellular domain 776-1124
T2 construct: amino acids of the intracellular domain 776-1124; made in house; host or cells: baculovirus expression (pFastBacGT vector)

Aurora2 = molecular target: T3, Aurora2 (Homo sapiens, UniProt O14965); assay: Aurora2 enzymatic test, NuMA phosphorylation with [33P]ATP, Flashplate; conditions: whole recombinant protein, 1 μM ATP
T3 construct: Aurora2: whole recombinant protein comprising an N-terminal histidine tail; His tag (N); made in house; host or cells: E. coli
T3 sequence (O14965 1-403): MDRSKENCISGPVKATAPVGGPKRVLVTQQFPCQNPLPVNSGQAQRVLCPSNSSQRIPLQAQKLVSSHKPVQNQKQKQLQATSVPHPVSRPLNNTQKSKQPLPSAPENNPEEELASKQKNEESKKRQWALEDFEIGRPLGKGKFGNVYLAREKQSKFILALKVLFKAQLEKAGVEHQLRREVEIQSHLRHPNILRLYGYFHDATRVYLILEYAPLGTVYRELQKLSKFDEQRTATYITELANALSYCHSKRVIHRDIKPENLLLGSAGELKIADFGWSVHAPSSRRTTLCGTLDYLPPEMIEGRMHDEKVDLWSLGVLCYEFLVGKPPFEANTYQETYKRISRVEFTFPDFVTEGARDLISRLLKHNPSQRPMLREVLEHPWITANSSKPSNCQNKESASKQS
In short: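 Full-length His-tagged Aurora2 (E. coli, >82% pure) at 10 nM phosphorylated 500 nM His-NuMA fragment on Ni-chelate Flashplates. Conditions were pH 7.5 Tris buffer with 10 mM MgCl2, 1 μM ATP plus [33P]ATP, 30 min at 37 °C.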

Aurora1 = molecular target: T4, Aurora1 (Homo sapiens, UniProt Q96GD4); assay: Aurora1 enzymatic test, NuMA phosphorylation with [33P]ATP, Flashplate; conditions: Aurora-B/INCENP-C3 recombinant complex, 1 μM ATP
T4 construct: His tag (N); made in house
In short: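 Recombinant His-tagged Aurora-B/INCENP-C3 complex (10 nM) phosphorylates 500 nM His-NuMA fragment with 1 µM ATP plus [33P]ATP, 30 minutes at 37° C in Tris pH 7.5 with 5 mM MgCl2, on nickel-chelate Flashplates. Incorporated 33P counted; percent inhibition versus enzyme control after no-enzyme background subtraction.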

T4 sequence (Q96GD4 whole entry, species assumed): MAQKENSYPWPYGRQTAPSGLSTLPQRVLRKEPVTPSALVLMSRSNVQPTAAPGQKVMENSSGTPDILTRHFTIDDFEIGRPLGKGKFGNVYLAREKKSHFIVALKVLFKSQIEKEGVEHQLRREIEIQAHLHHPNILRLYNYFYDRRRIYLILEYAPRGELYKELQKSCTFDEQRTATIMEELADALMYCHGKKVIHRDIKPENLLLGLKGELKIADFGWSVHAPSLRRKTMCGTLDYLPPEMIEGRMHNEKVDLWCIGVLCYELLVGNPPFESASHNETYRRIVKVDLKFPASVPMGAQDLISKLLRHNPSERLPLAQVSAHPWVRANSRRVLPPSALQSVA
T4 sequence (Q9NQS7 835-903 partner limits assumed, species assumed): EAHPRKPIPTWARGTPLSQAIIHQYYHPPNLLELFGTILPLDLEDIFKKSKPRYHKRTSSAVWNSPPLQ
T2 sequence (Q02763 776-1124): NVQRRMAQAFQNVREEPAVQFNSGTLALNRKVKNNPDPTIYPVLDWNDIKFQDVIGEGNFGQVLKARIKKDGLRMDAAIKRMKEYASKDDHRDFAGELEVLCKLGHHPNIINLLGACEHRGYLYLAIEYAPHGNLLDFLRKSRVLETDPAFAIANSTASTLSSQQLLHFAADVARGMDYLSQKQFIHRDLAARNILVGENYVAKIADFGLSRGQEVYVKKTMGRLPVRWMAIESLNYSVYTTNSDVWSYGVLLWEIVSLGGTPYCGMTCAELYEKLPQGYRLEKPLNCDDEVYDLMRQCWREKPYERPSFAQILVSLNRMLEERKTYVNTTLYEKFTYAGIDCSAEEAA

SMILES	IC50 (CDK2/cycline E) [nM]	IC50 (Tie2) [nM]	IC50 (Aurora2) [nM]	IC50 (Aurora1) [nM]
CCN(NC(=O)c1cc2c(NC(=O)c3ccc(N4CCN(C)CC4)cc3)n[nH]c2s1)c1cccc(Br)c1 [Example 43, N-{5-[N′-(3-bromophenyl)-N′-ethylhydrazinocarbonyl]-1H-thieno[2,3-c]pyrazol-3-yl}-4-(4-methylpiperazin-1-yl)benzamide]	32	8	1	5
COc1ccc(C(=O)Nc2n[nH]c3sc(C(=O)NNC4CCCCC4)cc23)cc1 [Example 3, N-[5-(N′-cyclohexylhydrazinocarbonyl)-1H-thieno-[2,3-c]pyrazol-3-yl]-4-methoxybenzamide]	471	192	45	31
CN1CCN(c2ccc(C(=O)Nc3n[nH]c4sc(C(=O)NN(C)c5ccc(Cl)cc5)cc34)cc2)CC1 [Example 28, N-{5-[N′-(4-chlorophenyl)-N′-methylhydrazinocarbonyl]-1H-thieno[2,3-c]pyrazol-3-yl}-4-(4-methylpiperazin-1-yl)benzamide]	132	106	2	6
COC[C@@H]1CCCN1NC(=O)c1cc2c(NC(=O)c3ccc(N4CCN(C)CC4)cc3)n[nH]c2s1 [Example 29, N-(2-methoxymethylpyrrolidin-1-yl)-3-[4-(4-methylpiperazin-1-yl)benzoylamino]-1H-thieno[2,3-c]pyrazole-5-carboxamide]	585	163	11	28
CN1CCN(c2ccc(C(=O)Nc3n[nH]c4sc(C(=O)NN(Cc5ccccc5)c5ccccc5)cc34)cc2)CC1 [Example 34, N-[5-(N′-benzyl-N′-phenylhydrazinocarbonyl)-1H-thieno[2,3-c]pyrazol-3-yl]-4-(4-methylpiperazin-1-yl)benzamide]	1580	38	5	13
COc1ccc(C(=O)Nc2n[nH]c3sc(C(=O)NN(Cc4ccccc4)c4ccccc4)cc23)cc1 [Example 4, N-[5-(N′-benzyl-N′-phenylhydrazinocarbonyl)-1H-thieno[2,3-c]pyrazol-3-yl]-4-methoxybenzamide]	508	115	28	6
COc1ccc(C(=O)Nc2n[nH]c3sc(C(=O)NNc4ccccc4C)cc23)cc1 [Example 7, 4-methoxy-N-[5-(N′-o-tolylhydrazinocarbonyl)-1H-thieno[2,3-c]pyrazol-3-yl]benzamide]	428	186	17	16
COCCN(NC(=O)c1cc2c(NC(=O)c3ccc(N4CCN(C)CC4)cc3)n[nH]c2s1)c1ccc(F)cc1 [Example 38, N-{5-[N′-(4-fluorophenyl)-N′-(2-methoxyethyl)-hydrazinocarbonyl]-1H-thieno[2,3-c]pyrazol-3-yl}-4-(4-methylpiperazin-1-yl)-benzamide]	214	58	4	21
COc1ccc(C(=O)Nc2n[nH]c3sc(C(=O)NNc4ccccc4F)cc23)cc1 [Example 6, N-{5-[N′-(2-fluorophenyl)hydrazinocarbonyl]-1H-thieno[2,3-c]pyrazol-3-yl}-4-methoxybenzamide]	579	230	20	14
CC(C)N(Cc1ccc(C(=O)Nc2n[nH]c3sc(C(=O)NN(C)c4ccccc4)cc23)cc1)C(C)C [Example 25, 4-[(diisopropylamino)methyl]-N-[5-(N′-methyl-N′-phenylhydrazinocarbonyl)-1H-thieno[2,3-c]pyrazol-3-yl]benzamide trifluoroacetate]	317	328	25	249
CN1CCN(c2ccc(C(=O)Nc3n[nH]c4sc(C(=O)N/N=C\c5ccccc5)cc34)cc2)CC1 [Example 45, N-[5-(benzylidenehydrazinocarbonyl)-1H-thieno-[2,3-c]pyrazol-3-yl]-4-(4-methylpiperazin-1-yl)benzamide]	146	29	21	33
CCN(NC(=O)c1cc2c(NC(=O)c3ccc(N4CCN(C)CC4)cc3)n[nH]c2s1)c1ccccc1C [Example 39, N-[5-(N′-ethyl-N′-o-tolylhydrazinocarbonyl)-1H-thieno[2,3-c]pyrazol-3-yl]-4-(4-methylpiperazin-1-yl)benzamide]	53	22	27	15

Results, then the compound that gave them:

IC50 (CDK2/cycline E) [nM]	IC50 (Tie2) [nM]	IC50 (Aurora2) [nM]	IC50 (Aurora1) [nM]	SMILES
301	2010	606	936	CN1CCN(Cc2cccc(C(=O)Nc3n[nH]c4sc(C(=O)NN(C)c5ccc(Cl)cc5)cc34)c2)CC1 [Example 16b, N-[5-(N′-(4-chlorophenyl)-N′-methylhydrazinocarbonyl)-1H-thieno[2,3-c]pyrazol-3-yl]-3-(4-methylpiperazin-1-ylmethyl)benzamide]
703	3190	762	956	CN(NC(=O)c1cc2c(NC(=O)c3cccc(CN4CCOCC4)c3)n[nH]c2s1)c1ccc(Cl)cc1 [Example 22b, N-{5-[N′-(4-chlorophenyl)-N′-methylhydrazinocarbonyl]-1H-thieno[2,3-c]pyrazol-3-yl}-3-morpholin-4-ylmethylbenzamide]
942	3210	301	992	CN1CCN(Cc2cccc(C(=O)Nc3n[nH]c4sc(C(=O)NN(C)c5ccccc5)cc34)c2)CC1 [Example 16a, N-[5-(N′-methyl-N′-phenylhydrazinocarbonyl)-1H-thieno[2,3-c]pyrazol-3-yl]-3-(4-methylpiperazin-1-ylmethyl)-benzamide]
181	624	14	122	CN(NC(=O)c1cc2c(NC(=O)c3ccc(CN4CCCC4)cc3)n[nH]c2s1)c1ccccc1 [Example 18a, N-[5-(N′-methyl-N′-phenylhydrazinocarbonyl)-1H-thieno[2,3-c]pyrazol-3-yl]-4-pyrrolidin-1-ylmethylbenzamide]
122	430	14	55	CN(NC(=O)c1cc2c(NC(=O)c3ccc(CN4CCCOCC4)cc3)n[nH]c2s1)c1ccccc1 [Example 21a, N-[5-(N′-methyl-N′-phenylhydrazinocarbonyl)-1H-thieno[2,3-c]pyrazol-3-yl]-4-perhydro-1,4-oxazepin-4-ylmethylbenzamide]
166	737	19	158	CC1CN(Cc2ccc(C(=O)Nc3n[nH]c4sc(C(=O)NN(C)c5ccccc5)cc34)cc2)CCN1 (stereo not drawn) [Example 14a, N-[5-(N′-methyl-N′-phenylhydrazinocarbonyl)-1H-thieno[2,3-c]pyrazol-3-yl]-4-(3-methylpiperazin-1-ylmethyl)benzamide]
46	425	44	148	CC1CN(Cc2ccc(C(=O)Nc3n[nH]c4sc(C(=O)NN(C)c5ccc(Cl)cc5)cc34)cc2)CCN1 (stereo not drawn) [Example 14b, N-{5-[N′-(4-chlorophenyl)-N′-methylhydrazinocarbonyl]-1H-thieno[2,3-c]pyrazol-3-yl}-4-(3-methylpiperazin-1-ylmethyl)benzamide]
143	431	65	199	CCN(CC)CCNCc1ccc(C(=O)Nc2n[nH]c3sc(C(=O)NN(C)c4ccccc4)cc23)cc1 [Example 23a, 4-[(2-diethylaminoethylamino)methyl]-N-[5-(N′-methyl-N′-phenylhydrazinocarbonyl)-1H-thieno[2,3-c]pyrazol-3-yl]-benzamide]
138	543	101	259	CCN(CC)CCNCc1ccc(C(=O)Nc2n[nH]c3sc(C(=O)NN(C)c4ccc(Cl)cc4)cc23)cc1 [Example 23b, N-{5-[N′-(4-chlorophenyl)-N′-methylhydrazinocarbonyl]-1H-thieno[2,3-c]pyrazol-3-yl}-4-[(2-diethylaminoethylamino)methyl]benzamide]
